{"source": "patent US9994862B2", "about": "“Rice resistant to HPPD and ACCase inhibiting herbicides” (priority 2011, dated 2018)", "key": {"[1]": {"system": "F2 individuals derived from a cross of ML0831266-03093 and ML0831265-01493", "assay": "Mesotrione herbicide bioassays on segregating F2 population", "type": "in vivo, rice", "experimental": "The mesotrione tolerant line ML0831266-03093 is tolerant to rates of 420 gm ai/ha and even a dual application of mesotrione first at a rate of 105 gm ai/ha followed three weeks later by an application of 630 gm ai/ha. […] The cross is made and the resulting F1 seeds are harvested, planted, and allowed to self to produce a F2 population. The F2 population is grown and tissue is collected from individual plants. Each F2 plant and parental lines are tested with a set of 192 SNP markers identified as being polymorphic between the two mutant lines ML0831266-03093 and ML0831265-01493. The set of polymorphic markers was identified as evenly spaced across the rice genome after testing both parental lines with a set of 796 SNP markers. All 192 markers including two found with linkage to target traits were selected from the 44 k SNP set described by Zhao et al. 2011.\nSeedlings of size 3 to 4 leaves are sprayed with mesotrione herbicide. In one set of 89 plants mesotrione is first applied at 105 gm ai/ha killing 23 plants. Both the mutant line control ML0831266-03093 and the unmutated line P1003 survived the herbicide application while the unmutated line R0146 was killed. The surviving plants including some additional plants making a total of 95 are then sprayed with another treatment of mesotrione at a rate of 630 gm ai/ha killing or injuring 67 while 28 survived. (FIG. 23) The surviving ratio of plants to those killed or injured fits a one quarter ratio with a chi squared value of 1.03, well within the expected for a single recessive gene. Another set of F2 individuals of size 78 individuals are sprayed with a single application of mesotrione herbicide at a rate of 420 gm ai/ha resulting in 26 plants surviving also fitting in the expected one quarter ratio for a single recessive gene with a chi square value of 2.88 (Table 2)."}, "[2]": {"system": "line PL1214418M2-73009", "assay": "Mesotrione trait tolerance trial", "type": "in vivo, rice", "experimental": "Two trials were conducted to measure recovery of tolerance to both ACCase and HPPD herbicides in the new line PL1214418M2-73009. Recovery of tolerance in the line combining the two traits will illustrate that the traits are heritable and can be used to produce new varieties and hybrids carrying herbicide resistance. These trials are important as often times it is difficult to recover complex QTLs for quantitative traits or in some cases a traits response is dependent upon the genetic background. In the first trail the lines resistance to mesotrione (HPPD herbicide) was evaluated by planting line PL1214418M2-73009, the HPPD resistant line ML0831266-03093 and wild-type rice line P1003 and R0146 in plots (5 feet×10 feet). […]\nDuring the breeding process to develop new lines (PL1214418M2-80048 and PL1214418M2-73009) with resistance/tolerance to HPPD and ACCase herbicides, two other lines were also investigated to determine the contribution of the HPPD tolerance mutation and the HPPD tolerance native gene. […] The tolerance effect of each gene was measured by growing the lines in single rows including the newly developed line PL1214418M2-73009 that carries both the HPPD tolerance from the mutation and the non-induced tolerance, the HPPD tolerant line ML0831266-0309, and the non-induced parent line P1003. […]"}, "[3]": {"system": "line PL1214418M2-73001", "assay": "Mesotrione trait tolerance trial", "type": "in vivo, rice", "details": "0.5x to 4x of 210 gmai/ha at 4 leaf stage, evaluated 4 weeks after application", "excerpt": "During the breeding process to develop new lines (PL1214418M2-80048 and PL1214418M2-73009) with resistance/tolerance to HPPD and ACCase herbicides, two other lines were also investigated to determine the contribution of the HPPD tolerance mutation and the HPPD tolerance native gene. The line PL1214418M2-73001 carries ACCase tolerance and only the HPPD tolerance, whereas […] PL1214418M2-73013 carries ACCase tolerance and only the HPPD native tolerance gene. These selections allow the estimation of the tolerance effect of each of the two genes required for tolerance to HPPD herbicides. The tolerance effect of each gene was measured by growing the lines in single rows including the newly developed line PL1214418M2-73009 that carries both the HPPD tolerance from the mutation and the non-induced tolerance, the HPPD tolerant line ML0831266-0309, and the non-induced parent line P1003. The field plots were sprayed at the 4 leaf stage with the HPPD herbicide mesotrione at 0.5×, 1×, 2×, and 4× multiples of the labeled application rate of 210 gmai/ha.\nThe plots were evaluated 4 weeks after the herbicide was applied. […] The two genes also appear to function in an additive manner as only by combining the two in the new line PL1214418M2-73009 does the tolerance level become equivalent to the original mutant line ML0831266-0309."}, "[4]": {"system": "line PL1214418M2-80048", "assay": "Herbicide tolerance of the combined HPPD and ACCase line", "parameters": "species or system rice", "details": "in vivo", "excerpt": "An early maturing group of plants was harvested as early as possible and the seeds planted in the greenhouse to help quickly advance to the F4 generation. Selections on the F3 plants were made by molecular markers flanking the HPPD tolerance mutation and native tolerance the ACCase functional mutation. Homozygous plants for all the selected genomic regions were advanced to the F5 generation. The F5 seed was confirmed to carry tolerance to ACCase herbicides and the HPPD herbicide mesotrione. Among the F5 lines PL1214418M2-80048 was selected due to a high seed yield and being homozygous for the ACCase tolerance mutation at position G2096S, the HPPD tolerance mutation, and the HPPD tolerance native gene. Seed from the line PL1214418M2-80048 was deposited at the ATCC and given a deposit number PTA-121362 (see Table 8).\nIndividuals with tolerance to both mesotrione and ACCase herbicides were selfed to produce F3 families and further selected for other important agronomic characters. The F3 lines were selfed and purified to derive a new line or variety with dual resistance to mesotrione and ACCase herbicides. Such lines are highly valuable as the use of both herbicides provides more complete and broad-spectrum weed control. […]"}, "[5]": {"details": "one application at 105 gai/ha followed by second application of 630 gai/ha"}, "[6]": {"details": "single application of mesotrione at 105 gai/ha"}, "[7]": {"details": "single application of mesotrione at 420 gai/ha"}}, "note": "Entries after “also recorded” stand apart in the source; their conditions may differ."}
{"smiles": "CS(=O)(=O)c1ccc(C(=O)C2C(=O)CCCC2=O)c([N+](=O)[O-])c1", "note": "[mesotrione]", "values": [{"measurement": "number of susceptible plants, observed", "setting": "[1]; [5]", "result": 67, "unit": "plants"}, {"measurement": "number of tolerant plants, observed", "setting": "[1]; [5]", "result": 28, "unit": "plants"}, {"measurement": "number of susceptible plants, observed", "setting": "[1]; [6]", "result": 23, "unit": "plants"}, {"measurement": "number of tolerant plants, observed", "setting": "[1]; [6]", "result": 64, "unit": "plants"}, {"measurement": "number of susceptible plants, observed", "setting": "[1]; [7]", "result": 52, "unit": "plants"}, {"measurement": "number of tolerant plants, observed", "setting": "[1]; [7]", "result": 26, "unit": "plants"}, {"measurement": "tolerance to mesotrione compared with the original HPPD tolerant line ML0831266-03093", "setting": "[2]; 0.5x to 4x of the labeled rate 210 gmai/ha", "result": "equivalent tolerance; also recorded: the same response"}, {"measurement": "tolerance to mesotrione", "setting": "[2]; in vivo", "result": "tolerance"}, {"measurement": "tolerance to mesotrione compared with P1003 and ML0831266-0309", "setting": "[3]", "result": "intermediate tolerance"}, {"measurement": "tolerance to the herbicide", "setting": "[4]", "result": "tolerance"}]}
